{"source": "patent US6747021B2", "about": "“Cryptophycin compound” (Eli Lilly and Company, priority 2000, dated 2004)", "key": {"HUMAN COLON ADEN[…]-116": {"test_system": "HUMAN COLON ADEN[…]-116", "test": "Early stage human colon adenocarcinoma HCT-116 xenograft assay", "format": "in vivo", "conditions": "IV 9 mg/kg/inj QD 3-10; total dose 72 mg/kg; Balb/C SCID female mice", "text": "(§1) Inhibition of tumors transplanted into mice is an accepted procedure for studying the efficacy of antitumor agents (Corbett, et al., In vivo Methods for Screening and Preclinical Testing; Use of rodent solid tumors for drug discovery., In: Anticancer Drug Development Guide: Preclinical Screening, Clinical Trials, and Approval, B. Teicher (ed), Humana Press Inc., Totowa, N.J., Chapter 5, pages 75-99 (1997); (Corbett, et al., Int. J. Pharmacog., 33, Supplement, 102-122 (1995)). Murine tumors or human xenographs were implanted essentially as described by Corbett in In vivo Methods for Screening and Preclinical Testing; Use of rodent solid tumors for drug discovery. Briefly, the murine tumor or human xenograph was implanted subcutaneously using either 12-gauge trocar implants or counted number of cells. The location for the trocar insertion is midway between the axillary and inguinal region along the side of the mouse. The trocar is slipped approximately ¾ of an inch subcutaneously up toward the axilla before discharging the tumor fragment, and pinching the skin as the trocar is removed. Alternatively, human tumor cells prepared from a […] of donor tumors (5×10^6 cells) were implanted subcutaneously in a hind-leg of a male or female nude mouse (Charles River). Either a test compound in vehicle or vehicle alone was administered by intravenous bolus injection (iv), intraperitoneal injection (ip), or oral gavage (po). Each treatment group, as well as a group of untreated control animals, consisted of five animals per group in each experiment. Subcutaneous tumor response was monitored by tumor volume measurement performed twice each week over the course of the experiment (60-120 days). Body weights were taken as a general measure of toxicity. The subcutaneous tumor data were analyzed by determining the median tumor weight for each treatment group over the course of the experiment and calculating the tumor growth delay as the difference in days for the treatment versus the control tumors to reach a volume of either 500 or 1000 mm^3.\n(§2) Cryptophycin-309 (309) was tested against a variety of murine and human tumors substantially as described supra. Cryptophycin-55 glycinate (55-GLY), Taxol, and Adriamycin (Adria) were also included in certain tests for purposes of comparison. Cryptophycin 55 glycinate is known in the art (WO 98/08505, Example 9) and has the following structure: [drawing 9]\n(§3) Tumor Weight(mg)=(a×b^2)/2 where a=tumor length (mm) and b=tumor width (mm).\n(§4) Tumor Growth Delay=T−C where T is the median time (days) required for the treatment group tumors to reach a predetermined size, and C is the median time (days) for the control group tumors to reach the same size. Tumor-free survivors are excluded from this calculation, and are tabulated separately (Tumor Free).\n(§5) Log Kill=Tumor Growth Delay/(3.32)(Td)\n(§6) where Tumor Growth Delay is as previously defined and Td is tumor volume doubling time (days), estimated from the best fit straight line from a log-linear growth plot of the control group of tumors in exponential growth (100-800 mg range)\n(§7) %T/C mass—The treatment and control groups are measured when the control group tumors reach approximately 700 to 1200 mg in size (median group). The median tumor weight of each group is determined (including zeros). The T/C value in percent is an indication of antitumor effectiveness. A T/C≦42% is considered significant antitumor activity. A T/C<10% is considered to indicate highly significant antitumor activity.\n(§8) Body Weight Loss Nadir—A body weight loss nadir (mean of group) of greater than 20% or drug deaths greater than 20% are considered to indicate an excessively toxic dosage in single course trials.\n(§9) Activity Rating—the Activity Rating is derived from the Log Kill according to the following table: […]"}, "[1]": {"test_system": "MAMMARY ADENOCARCINOMA-16/C/Adr", "test": "Early stage murine mammary adenocarcinoma-16/C/Adr subcutaneous tumor assay", "format": "in vivo", "conditions": "IV 10 mg/kg/inj QD 1-7; total dose 70 mg/kg; C3H female mice", "text": "as §1, §2, §3, §4, §5, §6, §7, §8, §9"}, "[2]": {"test_system": "PANCREATIC DUCTAL ADENOCARCINOMA #02", "format": "in vivo, murine", "conditions": "IV 8 mg/kg/inj QD 1-8; total dose 64 mg/kg; BDF1 female mice; experiment #", "text": "as §1, §2, §3, §4, §5, §6, §7, §8, §9"}, "[3]": {"test_system": "MAMMARY ADENOCARCINOMA 16/C", "format": "in vivo, murine", "conditions": "IV 8 mg/kg/inj QD 3-11; total dose 72 mg/kg; C3H/HeN female mice", "text": "as §1, §2, §3, §4, §5, §6, §7, §8, §9"}, "[4]": {"test_system": "COLON ADENOCARCINOMA-26/A", "format": "in vivo, murine", "conditions": "IV 10 mg/kg/inj QD 1-7, 9; total dose 80 mg/kg; Balb/C female mice", "text": "as §1, §2, §3, §4, §5, §6, §7, §8, §9"}, "[5]": {"test_system": "HUMAN COLON ADENOCARCINOMA 15", "format": "in vivo", "conditions": "IV 9.5 mg/kg/inj QD 3-11; total dose 85.5 mg/kg; Balb/C SCID female mice", "text": "as §1, §2, §3, §4, §5, §6, §7, §8, §9"}, "[6]": {"test_system": "COLON ADENOCARCINOMA 51/A", "test": "Early stage murine colon adenocarcinoma 51/A subcutaneous tumor assay", "format": "in vivo", "conditions": "IV 10 mg/kg/inj QD 1-8; total dose 80 mg/kg; CDF female mice", "text": "as §1, §2, §3, §4, §5, §6, §7, §8, §9"}}, "data": [{"smiles": "CC(=O)O[C@H]1C(=O)[C@@]2(C)[C@H]([C@H](OC(=O)c3ccccc3)[C@]3(O)C[C@H](OC(=O)[C@H](O)[C@@H](NC(=O)c4ccccc4)c4ccccc4)C(C)=C1C3(C)C)[C@]1(OC(C)=O)CO[C@@H]1C[C@@H]2O", "note": "[Taxol]", "values": [{"measurement": "% T/C MASS", "setting": "HUMAN COLON ADEN[…]-116", "result": 11, "unit": "%"}, {"measurement": "ACTIVITY RATING", "setting": "HUMAN COLON ADEN[…]-116", "result": "+++ (2.0-2.8)"}, {"measurement": "DRUG DEATHS", "setting": "HUMAN COLON ADEN[…]-116", "result": "0/5"}, {"measurement": "GROWTH DELAY", "setting": "HUMAN COLON ADEN[…]-116", "result": 17, "unit": "days"}, {"measurement": "LOG KILL", "setting": "HUMAN COLON ADEN[…]-116", "result": 2.0}, {"measurement": "MEDIAN TUMOR WEIGHT", "setting": "HUMAN COLON ADEN[…]-116", "result": 126, "unit": "mg"}, {"measurement": "DRUG DEATHS", "setting": "[1]", "result": "0/5"}, {"measurement": "LOG KILL", "setting": "[1]", "result": "None"}, {"measurement": "MEDIAN TUMOR WEIGHT", "setting": "[1]", "result": 1198, "unit": "mg"}, {"measurement": "% T/C MASS", "setting": "[2]", "result": 79, "unit": "%"}, {"measurement": "DRUG DEATHS", "setting": "[2]", "result": "0/5"}, {"measurement": "GROWTH DELAY", "setting": "[2]", "result": 1, "unit": "days"}, {"measurement": "LOG KILL", "setting": "[2]", "result": 0.1}, {"measurement": "MEDIAN TUMOR WEIGHT", "setting": "[2]", "result": 1296, "unit": "mg"}, {"measurement": "% T/C MASS", "setting": "[3]", "result": 0, "unit": "%"}, {"measurement": "ACTIVITY RATING", "setting": "[3]", "result": "++++ (>2.8)"}, {"measurement": "DRUG DEATHS", "setting": "[3]", "result": "0/5"}, {"measurement": "GROWTH DELAY", "setting": "[3]", "result": 12.5, "unit": "days"}, {"measurement": "LOG KILL", "setting": "[3]", "result": 2.9}, {"measurement": "MEDIAN TUMOR WEIGHT", "setting": "[3]", "result": 0, "unit": "mg"}, {"measurement": "% T/C MASS", "setting": "[4]", "result": 57, "unit": "%"}, {"measurement": "DRUG DEATHS", "setting": "[4]", "result": "0/5"}, {"measurement": "LOG KILL", "setting": "[4]", "result": "None"}, {"measurement": "MEDIAN TUMOR WEIGHT", "setting": "[4]", "result": 516, "unit": "mg"}, {"measurement": "% T/C MASS", "setting": "[5]", "result": 67, "unit": "%"}, {"measurement": "DRUG DEATHS", "setting": "[5]", "result": "0/5"}, {"measurement": "GROWTH DELAY", "setting": "[5]", "result": 3.5, "unit": "days"}, {"measurement": "LOG KILL", "setting": "[5]", "result": 0.4}, {"measurement": "MEDIAN TUMOR WEIGHT", "setting": "[5]", "result": 1044, "unit": "mg"}, {"measurement": "% T/C MASS", "setting": "[6]", "result": 25, "unit": "%"}, {"measurement": "ACTIVITY RATING", "setting": "[6]", "result": "+ (0.7-1.2)"}, {"measurement": "DRUG DEATHS", "setting": "[6]", "result": "0/6"}, {"measurement": "GROWTH DELAY", "setting": "[6]", "result": 5.6, "unit": "days"}, {"measurement": "LOG KILL", "setting": "[6]", "result": 0.7}, {"measurement": "MEDIAN TUMOR WEIGHT", "setting": "[6]", "result": 288, "unit": "mg"}]}]}
